Experimental data reported in the PolyMetriX glass transition set.
± gives the standard deviation of the reports.

Row | Structure (SMILES) | glass transition temperature [°C]
1 | *c1ccc(Oc2cccc(Oc3ccc(N4C(=O)c5cccc(Oc6ccc(C(=O)c7ccc(Oc8cccc9c8C(=O)N(*)C9=O)cc7)cc6)c5C4=O)cc3)c2)cc1 (repeat unit) | 216.00
2 | *CC(*)(CC(=O)OCC)C(=O)OCC (repeat unit) | 65.50
3 | *CC(*)(C)C(=O)OC1CCOCC1 (repeat unit) | 153.50
4 | *c1ccc(Oc2ccc(-c3ccc(Oc4ccc(N5C(=O)c6ccc(Oc7ccc(C8(c9ccc(Oc%10ccc%11c(c%10)C(=O)N(*)C%11=O)cc9)CCC(c9ccccc9)CC8)cc7)cc6C5=O)cc4)cc3C)c(C)c2)cc1 (repeat unit) | 226.00
5 | *c1ccc(Oc2ccc(Oc3ccc(N4C(=O)c5ccc(-c6ccc7c(c6)C(=O)N(*)C7=O)cc5C4=O)cc3)c(-c3ccccc3)c2)cc1 (repeat unit) | 247.00
6 | *C(=O)Nc1ccc(Oc2ccc(C(C)(C)c3ccc(Oc4ccc(NC(=O)c5ccc6c(c5)C(=O)N(c5ccc(Oc7ccc8ccc(Oc9ccc(N%10C(=O)c%11ccc(*)cc%11C%10=O)cc9)cc8c7)cc5)C6=O)cc4)cc3)cc2)cc1 (repeat unit) | 250.00
7 | *CC(*)(Cl)C(=O)OC (repeat unit) | 125.00
8 | *OP(=O)(Oc1ccc(NC(=O)OCCCCCCOC(=O)Nc2ccc(*)cc2)cc1)c1ccccc1 (repeat unit) | -3.00
9 | *CCO* (repeat unit) [Poly(ethylene glycol)] | -15.6 ± 42
10 | *Oc1ccc(/N=C(\c2ccccc2)c2ccc(Oc3ccc(C(C)(C)c4ccc(Oc5ccc(/C(=N/c6ccc(*)cc6)c6ccccc6)cc5)cc4)cc3)cc2)cc1 (repeat unit) | 155.00
11 | *CCC1C(=O)N(CCCC)C(=O)C1* (repeat unit) | 67.90
12 | *C(=O)Nc1ccc(-c2sc(-c3ccc(NC(=O)c4ccc5c(c4)C(=O)N(c4ccc(Oc6ccc7ccc(Oc8ccc(N9C(=O)c%10ccc(*)cc%10C9=O)cc8)cc7c6)cc4)C5=O)cc3)c(-c3ccccc3)c2-c2ccccc2)cc1 (repeat unit) | 311.00
13 | *c1ccc(-c2ccc3nc(Oc4cc(-c5ccccc5)c5cc(*)ccc5n4)cc(-c4ccccc4)c3c2)cc1 (repeat unit) | 300.00
14 | *Oc1cccc(Oc2cccc(NC(=O)c3cc(Oc4ccc(C(=O)O)c(C(=O)Nc5cccc(*)c5)c4)ccc3C(=O)O)c2)c1C#N (repeat unit) | 200.10
15 | *c1ccc(-c2ccc(Oc3ccc(C4(C)CC(C)(C)c5ccc(Oc6ccc(-c7ccc(N8C(=O)c9ccc(Oc%10ccc(C(C)(C)c%11ccc(Oc%12ccc%13c(c%12)C(=O)N(*)C%13=O)cc%11)cc%10)cc9C8=O)cc7)cc6C(F)(F)F)cc54)cc3)c(C(F)(F)F)c2)cc1 (repeat unit) | 241.00
16 | *CC(*)C(=O)NC(C)(C)C (repeat unit) [Poly(N-tert-butyl acrylamide)] | 131.42 ± 5.1
17 | *c1ccc(Cc2ccc(-n3nc(-c4ccccc4)cc3-c3cccc(-c4cc(-c5ccccc5)nn4*)c3)cc2)cc1 (repeat unit) | 225.00
18 | *CC(*)c1ccccc1C(=O)OCC (repeat unit) | 118.00
19 | *c1ccc2c(c1)C(=O)N(c1ccc(C(=O)Nc3ccc(Oc4ccc(C(c5ccc(Oc6ccc(NC(=O)c7ccc(N8C(=O)c9ccc(C(*)(C(F)(F)F)C(F)(F)F)cc9C8=O)cc7)cc6)cc5)(C(F)(F)F)C(F)(F)F)cc4)cc3)cc1)C2=O (repeat unit) | 293.00

Next, values leading:

Row | glass transition temperature [°C] | Structure (SMILES)
20 | 141.00 | *OS(=O)(=O)c1cc(S(=O)(=O)Oc2ccc(C3(c4ccc(*)c(C)c4)CCCCC3)cc2C)ccc1C (repeat unit)
21 | 33.00 | *OC(=O)c1cccc(OCCCCCCCCOc2cccc(C(=O)OC3COC4C(*)COC34)c2)c1 (repeat unit)
22 | 40.00 | */C=C(/*)C(CCC)[Si](C)(C)CCCCCC (repeat unit)
23 | 175.00 | *Oc1ccc(S(=O)(=O)c2ccc(Oc3c(C(C)C)cc(C(C)(C)c4cc(C(C)C)c(*)c(C(C)C)c4)cc3C(C)C)cc2)cc1 (repeat unit)
24 | 219.00 | *c1cc(C(=O)OCCCC)cc(N2C(=O)CC(C3Cc4ccccc4C4C(=O)N(*)C(=O)C43)C2=O)c1 (repeat unit)
25 | 147.50 | *C(CC(C)C)C(=O)Nc1ccc(Oc2ccc(NC(=O)NCC3(C)CC(NC(=O)Nc4ccc(Oc5ccc(NC(=O)C(CC(C)C)n6c(=O)c7cc8c(=O)n(*)c(=O)c8cc7c6=O)cc5)cc4)CC(C)(C)C3)cc2)cc1 (repeat unit)
26 | 137.50 | *Oc1ccc(C2(c3ccc(OC(*)=O)c(C)c3)CCCCC2)cc1C (repeat unit)
27 | 139.00 | *CCN(*)C(=O)CC12CC3CC(CC(C3)C1)C2 (repeat unit)
28 | 123.00 | *CCCCCCCCCCN1C(=O)c2ccc(C(c3ccc4c(c3)C(=O)N(*)C4=O)(C(F)(F)F)C(F)(F)F)cc2C1=O (repeat unit)
29 | 14.50 | *CC1CC(*)C(OC(=O)CCCCCCCCCCOc2ccc(-c3ccc(C#N)cc3)cc2)C1OC(=O)CCCCCCCCCCOc1ccc(-c2ccc(C#N)cc2)cc1 (repeat unit)
30 | 104.00 | *CCCCCCNC(=O)Cc1ccc(C(=O)N*)cc1 (repeat unit)
31 | 420.00 | *c1c(C)cc(Cc2cc(C)c(N3C(=O)c4ccc(Oc5c(C)cc(-c6cc(C)c(Oc7ccc8c(c7)C(=O)N(*)C8=O)c(C)c6)cc5C)cc4C3=O)c(C)c2)cc1C (repeat unit)
32 | 82.00 | *C(=O)CCCCCCCCC(=O)N1CCN(*)CC1 (repeat unit)
33 | 315.00 | *c1ccc(NC(=O)c2ccc(NC(=O)c3ccc([Si](C)(C)c4ccc(C(=O)Nc5ccc(C(=O)Nc6ccc(S(*)(=O)=O)cc6)cc5)cc4)cc3)cc2)cc1 (repeat unit)
34 | -69.00 | *CC(C)(CC)COC(=O)CCCCCCCCC(=O)O* (repeat unit)
35 | 55.00 | *CC(*)CCCCCCCCCCCCCCCC (repeat unit)
36 | 147.00 | *OS(=O)(=O)c1cccc(S(=O)(=O)Oc2ccc(C(C)(CC)c3ccc(*)cc3)cc2)c1 (repeat unit)
37 | 195.00 | *Oc1ccc(OC(=O)c2ccc(C(C)(C)c3ccc(C(*)=O)cc3)cc2)cc1 (repeat unit)
38 | 82.00 | *Oc1ccc(CC(NC(=O)CCc2ccc(OC(=O)CCC(*)=O)cc2)C(=O)OC(C)C)cc1 (repeat unit)
39 | 288.00 | *c1ccc2c(c1)C(=O)N(c1c(C)cc(C(c3cc(C(F)(F)F)cc(C(F)(F)F)c3)c3cc(C)c(N4C(=O)c5ccc(C(*)(C(F)(F)F)C(F)(F)F)cc5C4=O)c(C)c3)cc1C)C2=O (repeat unit)
40 | 105.00 | *Oc1ccc(OC(=O)c2ccc(C(*)=O)cc2Oc2ccccc2)cc1 (repeat unit)
41 | 54.00 | *CC(*)(C)C(=O)OCCCCCCCCCCOc1ccc(/N=N/c2ccc(Cl)cc2)cc1 (repeat unit)
42 | 355.00 | *Oc1ccc(C2(c3ccc(OC(*)=O)cc3)c3ccccc3-c3ccccc32)cc1 (repeat unit)
43 | -52.00 | *CC(*)c1ccc(CCCCCCCCCCCC)cc1 (repeat unit)
